How the values were obtained:
[1] = Time to complete dissolution during preparation of high concentration solutions; type: physicochemical
Description: Solubilization of Baclofen by Heat and Sonication. Appropriate amounts of baclofen were weighed and added to appropriate volumes of normal saline in order to produce mixtures containing 4, 5, 6, 8 or 10 mg/mL baclofen. All samples had undissolved baclofen powder present immediately after mixing. Samples having concentrations of 4, 5 or 6 mg/mL of baclofen were heated to 70° C. Samples having concentrations of 8 and 10 mg/mL of baclofen were heated to 95° C. Intense agitation was applied to all of the samples by sonicating the samples during the heating step. Heating and sonication were continued until all of the powder dissolved, and a clear solution with no residual particulate matter resulted. For the 4, 5, and 6 mg/mL samples, this occurred in about 20 to 30 minutes. […] Again, the solutions were clear with no residual particulate matter.
Solubilization of Baclofen by Heat and High-Speed Stirring. Appropriate amounts of baclofen were weighed and added to appropriate volumes of normal saline in order to produce mixtures containing 4, 5, 6, 8 or 10 mg/mL baclofen. All samples had undissolved baclofen powder present immediately after mixing. Samples having concentrations of 4, 5 or 6 mg/mL of baclofen were heated to 70° C. Samples having concentrations of 8 and 10 mg/mL of baclofen were heated to 95° C. Intense agitation was applied to all of the samples by high-speed stirring. A high-speed stir bar was placed in each of the containers for each of the baclofen concentrations was stirred using a Thermolyne stirrer at a speed of about 600 rpm while the solutions were heated. This was designed to simulate the use of a high-speed high shear mixer in a larger industrial setting. Again the heating at 70° C. for the 4, 5, and 6 mg/mL concentrations and to 95° C. for the 8 and 10 mg/mL concentrations and high-speed stirring were continued until all of the powder had dissolved and a clear solution with no residual particulate matter resulted. This occurred within about 20 minutes with all samples.
Acidification with Back Titration. Baclofen concentrations of 4, 5, 6, 8, and 10 mg/mL were prepared by dissolving appropriate amounts of baclofen powder in 0.1 N hydrochloric acid. […] The solutions were then back titrated with 0.1 N sodium hydroxide to reach a pH about 5.0 to 5.1, which is within the current product pH range for commercial baclofen solutions, and brought to volume with 0.9% sodium chloride. After complete dissolution had occurred, the solutions were filtered through 0.22-micron sterilizing filters into sterile empty vials. The vials were stored at room temperature, under refrigeration, and at 37° C. to simulate “in use” conditions in an implanted pump.
Alkalinization with Back Titration. Baclofen concentrations of 4, 5, 6, 8, and 10 mg/mL were prepared by dissolving appropriate amounts of baclofen powder in 0.1 N sodium hydroxide. […] The solutions were then back titrated with 0.1 N hydrochloric acid to reach a pH about 6.9 to 7.0, which is within the current product range, and brought to volume with 0.9% sodium chloride. After complete dissolution had occurred, the solutions were filtered through 0.22-micron sterilizing filters into sterile empty vials. The vials were stored at room temperature, under refrigeration, and at 37° C. to simulate “in use” conditions in an implanted pump.

[2] = 20° C.; cited from earlier work
[3] = Physical stability evaluation (visual inspection, Tyndall beam, turbidity, particle counting) of stored baclofen solutions; type: physicochemical; settings: for time remained clear and free of unacceptable microparticulates: room temperature or 37° C.
Description: Methods of Sample Preparation. All manipulations are conducted in a Class 100 environment in a biological safety cabinet. Each test solution is prepared as a pooled sample and then subdivided by (1) drawing 20 mL of the solution into 30-mL Becton-Dickinson syringes having Braun Luer lock “Red Cap” syringe tip seals and (2) sealing the Luer tip with a Red Cap Luer tip seal and (3) filling 20 mL of the test solution into 30-mL sterile empty glass vials. Separate sample syringes and sample vials are prepared for each drug concentration at each storage temperature. Separate syringes and vials are prepared for analysis of the drug content. Further syringes and vials are used to evaluate the physical stability of the solutions.
Methods of Sampling and Analysis. Each pooled solution is analyzed and evaluated immediately after preparation. This serves as the initial time point evaluation for the test solution. The solution is then packaged into the syringes and vials as noted under Sample Preparation.
The test solutions in vials and syringes are thoroughly mixed prior to sampling. A 1-mL sample of each test solution from three test syringes and three test vials is collected and chemically analyzed. The sample aliquots are removed from each container after 1, 3, 7, 14, 21, 30 and 60 days of storage at 4° C., 23° C., and 37° C. Triplicate HPLC determinations are performed at each time point if needed to determine the maximum stability of baclofen. The contents of the remaining containers are visually inspected at each assay time point and 6-mL samples are collected and fully evaluated for physical stability as indicated under Physical Stability Evaluation above after 1, 3, 7, 14, 21, 30 and 60 days.
After complete dissolution of the samples had occurred, the solutions were allowed to cool to room temperature and several separate aliquots of each sample were filtered through 0.22-micron sterilizing filters into sterile empty vials. Vials containing samples of each solution were stored under one of three test conditions: vials were stored at room temperature or under refrigeration (to simulate normal storage conditions), or at 37° C. (to simulate “in use” conditions in an implanted pump).
Physical Stability Evaluation. The samples are also evaluated for changes in turbidity and particulate formation. In addition to visual inspection in normal diffuse fluorescent room light and using a high-intensity monodirectional light source (Tyndall beam) against a dark background, turbidity is measured using a Hach Company model 2100AN color-correcting turbidimeter, and particle sizing/counting is performed using a light-obscuration particle sizer and counter (HIAC-Royco Model 9703 particle sizer/counter).

## NCC(CC(=O)O)c1ccc(Cl)cc1 (stereo not shown) [Baclofen, 4-amino-3-(p-chlorophenyl) butyric acid]
[1]; 4, 5, 6 mg/mL at 70° C. and 8, 10 mg/mL at 95° C., normal saline, high-speed stirring about 600 rpm (Example 2)
  time until all powder dissolved (clear solution): ≤ 20 min
[1]; 4, 5, 6, 8, and 10 mg/mL in 0.1 N hydrochloric acid (Example 3)
  time until powder dissolved (clear solution): within a few minutes
[1]; 4, 5, 6, 8, and 10 mg/mL in 0.1 N sodium hydroxide (Example 4)
  time until powder dissolved (clear solution): within a few minutes
[1]; 4, 5, and 6 mg/mL in normal saline, 70° C., sonication (Example 1)
  time until all powder dissolved (clear solution): 20 to 30 min
[1]; 8 and 10 mg/mL in normal saline, 95° C., sonication (Example 1)
  time until all powder dissolved (clear solution): about 20 minutes
[2]
  pKa1: 3.8±0.1
  pKa2: 9.62±0.1
[3]; 4 mg/mL, Examples 1 and 2, 37° C. (maximum duration tested)
  time stayed in solution, clear and free of visible particulates and unacceptable microparticulates: at least one
[3]; 4 mg/mL, prepared by pH adjustment (Examples 3 and 4)
  time remained clear and free of unacceptable microparticulates: at least 60 days
[3]; 5 mg/mL, all four methods (Examples 1-4)
  time remained clear and free of unacceptable microparticulates: at least 60 days
[3]; 6 mg/mL, refrigeration
  time after which a precipitate developed: 7 days
[3]; 8 mg/mL, acidification and back titration to pH 5 (Example 3), room temperature
  time remained in solution clear and free of unacceptable microparticulates: at least 30 days
[3]; 8 mg/mL, alkalinization and back titration (Example 4), room temperature
  time remains in solution clear and free of unacceptable microparticulates: at least 30 days
